Each structure is given as a SMILES string.

The nature of data set [1]: Determination of metabolic stability with human liver microsomes. The following applies: pooled human liver microsomes; for half-life at 1 μM: human, pH 7.6.
Description: Determination of Metabolic Stability with Human Liver Microsomes
The metabolic degradation of the test compound is assayed at 37° C. with pooled human liver microsomes. The final incubation volume of 100 μl per time point contains TRIS buffer pH 7.6 (0.1 M), magnesium chloride (5 mM), microsomal protein (1 mg/ml) and the test compound at a final concentration of 1 μM. Following a short preincubation period at 37° C., the reactions are initiated by addition of beta-nicotinamide adenine dinucleotide phosphate, reduced form (NADPH, 1 mM) and terminated by transferring an aliquot into acetonitrile after different time points. Additionally, the NADPH-independent degradation is monitored in incubations without NADPH, terminated at the last time point. The [%] remaining test compound after NADPH independent incubation is reflected by the parameter c (control) (metabolic stability). The quenched incubations are pelleted by centrifugation (10,000 g, 5 min). An aliquot of the supernatant is assayed by LC-MS/MS for the amount of parent compound.
The half-life (t½ INVITRO) is determined by the slope of the semilogarithmic plot of the concentration-time profile.
Data set [2] deals with recombinant human DPPI (Cathepsin C) (Homo sapiens (Human), UniProt P53634). Put plainly: Inhibition of human DPPI (Cathepsin C). It is filed as biochemical. The settings on record: substrate Gly-Arg-AMC. In short, it runs like this:
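Recombinant human DPPI in MES buffer pH 6.0 (5 mM DTT, 0.1% BSA); fluorogenic substrate at 50 μM final, 30 min at room temperature, stopped with 1 μM Gly-Phe-DMK. Background-subtracted fluorescence expressed as percent of vehicle control; IC50 derived.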

In data set [3] the target is recombinant human Cathepsin K (Homo sapiens (Human), UniProt P43235). Put plainly: Inhibition of human Cathepsin K. The class given is biochemical. The settings on record: substrate Z-Gly-Pro-Arg-AMC. From the text: Inhibition of Human Cathepsin K
Materials: Microtiterplates (Optiplate-384 F were purchased from PerkinElmer (Prod. No. 6007270). The substrate Z-Gly-Pro-Arg-AMC was from Biomol (Prod.-No. P-142). L-Cysteine (Prod. No. 168149) was from Sigma. Sodium acetate was from Merck (Prod.-No. 6268.0250), EDTA was from Fluka (Prod.-No. 03680). The inhibitor E-64 was purchased from Sigma (Prod.-No. E3132). The recombinant human Cathepsin K proenzyme was purchased from Biomol (Prod. No. SE-367). All other materials were of highest grade commercially available.
The following buffers were used: Activation buffer: 32.5 mM sodium acetate, adjusted to pH 3.5 with HCl; Assay buffer: 150 mM sodium acetate, 4 mM EDTA, 20 mM L-Cysteine, adjusted to pH 5.5 with HCl,
To activate the proenzyme, 5 μl procathepsin K were mixed with 1 ul activation buffer, and incubated at room temperature for 30 min.
5 μL test compound (final concentration 0.1 nM to 100 μM) in aqua bidest (containing 4% DMSO, final DMSO concentration 1%) were mixed with 10 uL of Cathepsin K in assay buffer (final concentration 2 ng/μL) and incubated for 10 min. […] The plates were then incubated at room temperature for 60 min. Then, the reaction was stopped by adding 10 μL of E64 in assay buffer (final concentration 1 μM). The fluorescence in the wells was determined using a Molecular Devices SpectraMax M5 Fluorescence Reader (Ex 360 nm, Em 460 nm).
Each assay microtiter plate contains wells with vehicle controls (1% DMSO in bidest) as reference for non-inhibited enzyme activity (100% Ctl; high values) and wells with inhibitor (E64 in bidest+1% DMSO, final concentration […]) as controls for background fluorescence (0% Ctl; low values). The analysis of the data was performed by calculating the percentage of fluorescence in the presence of test compound in comparison to the fluorescence of the vehicle control after subtracting the background fluorescence: (RFU(sample)−RFU(background))*100/(RFU(control)−RFU(background))
Data from these calculations were used to generate IC50 values for inhibition of Cathepsin K, respectively.

Chain of recombinant human Cathepsin K (P43235 115-329): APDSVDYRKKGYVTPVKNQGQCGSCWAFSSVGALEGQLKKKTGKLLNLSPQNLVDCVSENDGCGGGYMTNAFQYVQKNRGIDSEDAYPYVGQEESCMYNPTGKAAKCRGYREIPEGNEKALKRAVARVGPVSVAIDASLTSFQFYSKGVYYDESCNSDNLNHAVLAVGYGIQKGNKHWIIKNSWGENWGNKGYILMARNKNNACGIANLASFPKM
Chain of recombinant human DPPI (Cathepsin C) (P53634 231-394): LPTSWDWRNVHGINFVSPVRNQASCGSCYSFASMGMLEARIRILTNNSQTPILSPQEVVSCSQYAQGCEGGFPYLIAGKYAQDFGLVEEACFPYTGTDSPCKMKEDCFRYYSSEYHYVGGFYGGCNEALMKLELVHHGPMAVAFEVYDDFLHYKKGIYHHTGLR
Chain of recombinant human DPPI (Cathepsin C) (P53634 395-463): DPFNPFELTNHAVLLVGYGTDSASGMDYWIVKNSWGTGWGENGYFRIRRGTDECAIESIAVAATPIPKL
Chain of recombinant human DPPI (Cathepsin C) (P53634 25-134): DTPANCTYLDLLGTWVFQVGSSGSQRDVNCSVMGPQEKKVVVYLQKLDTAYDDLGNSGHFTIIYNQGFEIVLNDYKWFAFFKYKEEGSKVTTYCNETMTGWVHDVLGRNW

In the case of `N#Cc1ccc2c(c1)[nH]c(=O)c1cc(CC(C#N)NC(=O)[C@H]3N[C@@H]4CC[C@H]3C4)c(F)cc12` (stereo partly shown) [Example 292], the half-life at 1 μM in data set [1] worked out at 1.57 h. Further, the IC50 in data set [2] is 0.9 nM.
In the same order, the values of `N#C[C@H](Cc1ccc(-n2cccn2)cc1F)NC(=O)[C@H]1N[C@@H]2CC[C@H]1C2` [Example 180] are > 2 h and 7.7 nM.
In the same order, the values of `N#C[C@H](Cc1ccc(-c2cnn(-c3ccccc3)c2)cc1F)NC(=O)[C@H]1N[C@@H]2CC[C@H]1C2` [Example 171] are 1.38 h and 5 nM.
Regarding `N#C[C@H](Cc1ccc([C@H]2CCN3CCOC[C@H]3C2)cc1F)NC(=O)[C@H]1N[C@@H]2CC[C@H]1C2` [Example 284], the half-life at 1 μM in data set [1] was found to be 0.967 h.
For `N#Cc1cc(F)c2[nH]c(=O)c3cc(CC(C#N)NC(=O)[C@H]4N[C@@H]5CC[C@H]4C5)ccc3c2c1` (stereo partly shown) [Example 307], the half-life at 1 μM in data set [1] is > 2.17 h. In data set [2], the IC50 was 7.2 nM.
Turning to `CC1(C)OC(=O)c2cc(-c3ccc(C[C@@H](C#N)NC(=O)[C@H]4N[C@@H]5CC[C@H]4C5)c(F)c3)ccc21` [Example 166], the half-life at 1 μM in data set [1] came to 1.57 h. For the same molecule, in data set [2], the IC50 came to 3.3 nM.
In the same order, the values of `N#C[C@H](Cc1ccc(-c2ccc(=O)[nH]c2)cc1F)NC(=O)[C@H]1N[C@@H]2CC[C@H]1C2` [Example 258] are > 2.17 h and 7.9 nM.
In the same order, the values of `CC1CN(c2ccc(C[C@@H](C#N)NC(=O)[C@H]3N[C@@H]4CC[C@H]3C4)c(F)c2)C(C)CN1C` (stereo partly shown) [Example 196] are > 2.17 h and 15.1 nM.
In the same order, the values of `N#C[C@H](Cc1ccc(-c2cnc3cnccn23)cc1F)NC(=O)[C@H]1N[C@@H]2CC[C@H]1C2` [Example 194] are 1.42 h and 13.3 nM.
As to `C[C@H]1CN(C)CCN1c1ccc(C[C@@H](C#N)NC(=O)[C@H]2N[C@@H]3CC[C@H]2C3)c(F)c1` [Example 188], the half-life at 1 μM in data set [1] is 1.62 h.
`CCn1cc(-c2ccc(C[C@@H](C#N)NC(=O)[C@H]3N[C@@H]4CC[C@H]3C4)c(F)c2)cn1` [Example 26]: the figures for the IC50 in data set [3] and in data set [2] were 3600 nM and 4 nM, respectively.
In the same order, the values of `CNS(=O)(=O)c1ccc(-c2ccc(CC(C#N)NC(=O)[C@H]3N[C@@H]4CC[C@H]3C4)c(F)c2)cc1` (stereo partly shown) [Example 51] are 4900 nM and 7.5 nM.
Consider `N#C[C@H](Cc1ccc(-c2cnc(N3CCOCC3)s2)cc1F)NC(=O)[C@H]1N[C@@H]2CC[C@H]1C2` [Example 59], for which the IC50 was 2500 nM in data set [3] and 8.5 nM in data set [2].
In the same order, the values of `CCn1cc(-c2ccc(C[C@@H](C#N)NC(=O)[C@H]3N[C@H]4C[C@@H]3[C@@H]3C[C@@H]34)c(F)c2)cn1` [Example 138] are 6400 nM and 14.5 nM.
For `CN1Cc2cc(-c3ccc(C[C@@H](C#N)NC(=O)[C@H]4N[C@H]5C[C@@H]4[C@@H]4C[C@@H]45)c(F)c3)ccc2C1=O` [Example 149], the IC50 is 7600 nM in data set [3] and 38.7 nM in data set [2].
On to `Cc1occc1-c1ccc(CC(C#N)NC(=O)[C@H]2N[C@@H]3CC[C@H]2C3)c(F)c1` (stereo partly shown) [Example 92], for which the results for the IC50 in data set [3] and in data set [2] were 8200 nM and 17.7 nM, respectively.
As for `CC(=O)NCCn1cc(-c2ccc(C[C@@H](C#N)NC(=O)[C@H]3N[C@@H]4CC[C@H]3C4)c(F)c2)cn1` [Example 38], the IC50 was 2900 nM in data set [3] and 4.8 nM in data set [2].
In the same order, the values of `Cn1nc2ccccc2c1-c1ccc(C[C@@H](C#N)NC(=O)[C@H]2N[C@@H]3CC[C@H]2C3)c(F)c1` [Example 60] are 12300 nM and 8.7 nM.
In the same order, the values of `CC(C)Cn1cc(-c2ccc(C[C@@H](C#N)NC(=O)[C@H]3N[C@@H]4CC[C@H]3C4)c(F)c2)cn1` [Example 64] are 4200 nM and 9.3 nM.
As to `N#C[C@H](Cc1ccc(N2CCCN3CCCC3C2)cc1F)NC(=O)[C@H]1N[C@@H]2CC[C@H]1C2` (stereo partly shown) [Example 271], the “In vitro stability in human liver microsome incubations t½” value in data set [1] (1 μM test compound, 37° C., NADPH) was found to be 2.17 h.
`CS(=O)(=O)Nc1ccc(-c2ccc(C[C@@H](C#N)NC(=O)[C@H]3N[C@H]4C[C@@H]3[C@@H]3C[C@@H]34)c(F)c2)cc1` [Example 140]: the IC50 is 8400 nM in data set [3] and 21.5 nM in data set [2].
In the case of `CNC(=O)c1cc(-c2ccc(C[C@@H](C#N)NC(=O)[C@H]3N[C@@H]4CC[C@H]3C4)c(F)c2)cs1` [Example 161], the concentration for half-maximal inhibition (IC50) in data set [3] amounted to 10700 nM; in data set [2] it was 1.9 nM.
For the molecule `N#C[C@H](Cc1ccc(-c2ccc(C(=O)O)s2)cc1F)NC(=O)[C@H]1N[C@@H]2CC[C@H]1C2` [Example 115], the IC50 stood at 2300 nM in data set [3] and 37.8 nM in data set [2].
In the same order, the values of `Cc1ncc(-c2ccc(C[C@@H](C#N)NC(=O)[C@H]3N[C@H]4C[C@@H]3[C@@H]3C[C@@H]34)c(F)c2)s1` [Example 93] are 6900 nM and 18.3 nM.
In the same order, the values of `CCCn1cc(-c2ccc(C[C@@H](C#N)NC(=O)[C@H]3N[C@@H]4CC[C@H]3C4)c(F)c2)cn1` [Example 30] are 3100 nM and 4.2 nM.
In the same order, the values of `N#Cc1sccc1-c1ccc(C[C@@H](C#N)NC(=O)[C@H]2N[C@@H]3CC[C@H]2C3)c(F)c1` [Example 85] are 3000 nM and 14 nM.
For `N#CC(Cc1ccc2c(c1)[nH]c1ccccc12)NC(=O)[C@H]1N[C@@H]2CC[C@H]1C2` (stereo partly shown) [Example 203], the IC50 in data set [3] came to 8400 nM; in data set [2], 23.3 nM.
In the same order, the values of `CS(=O)(=O)c1cccc(-c2ccc(C[C@@H](C#N)NC(=O)[C@H]3N[C@H]4C[C@@H]3[C@@H]3C[C@@H]34)c(F)c2)c1` [Example 144] are 11100 nM and 26.3 nM.
In the same order, the values of `COC(=O)Cn1cc(-c2ccc(C[C@@H](C#N)NC(=O)[C@H]3N[C@@H]4CC[C@H]3C4)c(F)c2)cn1` [Example 13] are 3400 nM and 1.9 nM.
In the same order, the values of `Cn1c(=O)c2cc(C[C@@H](C#N)NC(=O)[C@H]3N[C@@H]4CC[C@H]3C4)c(F)cc2c2ccccc21` [Example 326] are 1100 nM and 1.9 nM.
Turning to `Cc1nc(C)c(-c2ccc(C[C@@H](C#N)NC(=O)[C@H]3N[C@@H]4CC[C@H]3C4)c(F)c2)s1` [Example 80], the concentration for half-maximal inhibition (IC50) in data set [3] was found to be 4100 nM; in data set [2], 12.4 nM.
In the same order, the values of `N#C[C@@H](Cc1ccc(-c2ccc3ncsc3c2)cc1F)NC(=O)[C@H]1N[C@@H]2CC[C@H]1C2` [Example 45] are 4400 nM and 6.3 nM.
In the same order, the values of `CNC(=O)c1ccc(-c2ccc(C[C@@H](C#N)NC(=O)[C@H]3N[C@@H]4CC[C@H]3C4)c(F)c2)cc1` [Example 186] are 3500 nM and 9.6 nM.
In the same order, the values of `CC(C)CC(=O)n1cc(-c2ccc(C[C@@H](C#N)NC(=O)[C@H]3N[C@@H]4CC[C@H]3C4)c(F)c2)cn1` [Example 48] are 3300 nM and 7.2 nM.
As to `N#CC(Cc1ccc(-c2ccc3c(c2)COC3=O)cc1F)NC(=O)[C@H]1N[C@@H]2CC[C@H]1C2` (stereo partly shown) [Example 11], the IC50 came out at 2600 nM in data set [3] and 1.7 nM in data set [2].
In the same order, the values of `N#CC(Cc1ccc(-c2ccc3c(c2)CCNC3=O)cc1F)NC(=O)[C@H]1N[C@H]2C[C@@H]1[C@@H]1C[C@@H]12` (stereo partly shown) [Example 148] are 14600 nM and 30.4 nM.
As to `COC(=O)c1cc(-c2ccc(C[C@@H](C#N)NC(=O)[C@H]3N[C@H]4C[C@@H]3[C@@H]3C[C@@H]34)c(F)c2)cs1` [Example 133], the concentration for half-maximal inhibition (IC50) amounted to 19400 nM in data set [3] and 16.1 nM in data set [2].
Turning to `CC(=O)n1cc(-c2ccc(C[C@@H](C#N)NC(=O)[C@H]3N[C@@H]4CC[C@H]3C4)c(F)c2)cn1` [Example 20], the IC50 in data set [3] worked out at 2900 nM; in data set [2], 3.1 nM.
In the same order, the values of `CN1C(=O)Cc2ccc(-c3ccc(C[C@@H](C#N)NC(=O)[C@H]4N[C@@H]5CC[C@H]4C5)c(Cl)c3)cc21` [Example 81] are 4500 nM and 13.1 nM.
In the case of `CC1CN(C)CCN1c1ccc(C[C@@H](C#N)NC(=O)[C@H]2N[C@@H]3CC[C@H]2C3)c(F)c1` (stereo partly shown) [Example 192], the half-life at 1 μM in data set [1] is > 2.17 h.

A word on the half-life: it is the time needed for the level to fall by half in the phase considered. A higher half-life goes with slow loss. In general, IC50 refers to the point on the concentration scale where inhibition reaches its midpoint.
